Results published in patent US20110163045A1, “METHOD AND SYSTEM FOR TREATING CONTAMINATED WATER” (Ramot at Tel-Aviv University Ltd., priority 2008, published 2011).
Values joined by “and” are separate entries in the source; they are usually repeats but may differ in a detail not shown here. Identical values can stand only once. Like-named read-outs stand apart in the source and are kept apart here. Values belong to the compound of their own block, whether it stands above or below them.

What was measured:
[1] = Direct UV photolytic degradation of single contaminants in deionized water (collimated beam MP Hg lamp, HPLC/MS/MS); format: physicochemical; conditions: for UV dose for 90% degradation: polychromatic UV 200-400 nm; for pH dependence of rate constant (k) for photolytic degradation: FIG. 21 and FIG. 23, in words; for Optimal pH for photodegradation: UV direct photolysis
Procedure: Solutions of tested contaminants were prepared by dissolving one or more contaminant in 150 ml deionized water (DI) at a concentration of 1 mg/l for each contaminant. The solution was then placed into an open 90×50 mm crystallization dish. […] No. 7830-61, from Ace Glass Inc.) housed in a bench scale collimated beam apparatus. […] 0.5 ml samples were removed from the irradiated solution at selected time intervals in order to measure the concentration of the remaining contaminant. Samples were measured in a 1100-Finnigan LCQ HPLC/MS/MS (high performance liquid chromatography/tandem mass spectrometry) apparatus (Agilent), in order to obtain a chromatogram for the sample. The concentration was expressed as the area of the peak observed in the HPLC/MS/MS chromatogram. The degradation kinetics were expressed as a logarithm of the ratio of the concentration (CH) remaining following a dose H of irradiation to initial concentration (C0). Such a logarithm decreased in a linear manner as a function of the dose, as follows: […] The data were fitted using a linear regression approach (with R^2>0.9) resulting in pseudo-first order reaction kinetics which reflect the difference in photodegradation between samples.

[2] = cited from earlier work
[3] = Direct UV photolytic degradation of SMX in synthetic effluent water; format: physicochemical
Procedure: Solutions of tested contaminants were prepared by dissolving one or more contaminant in 150 ml deionized water (DI) at a concentration of 1 mg/l for each contaminant. The solution was then placed into an open 90×50 mm crystallization dish.
The aqueous solution was stirred continuously for the duration of the experiment, and irradiated using a 0.45 kW polychromatic medium-pressure (MP) Hg vapor lamp (Ace-Hanovia Lamp Cat. No. 7830-61, from Ace Glass Inc.) housed in a bench scale collimated beam apparatus. The polychromatic irradiation was at ultraviolet (UV) wavelengths in a range of 200-400 nm.
0.5 ml samples were removed from the irradiated solution at selected time intervals in order to measure the concentration of the remaining contaminant. Samples were measured in a 1100-Finnigan LCQ HPLC/MS/MS (high performance liquid chromatography/tandem mass spectrometry) apparatus (Agilent), in order to obtain a chromatogram for the sample. The concentration was expressed as the area of the peak observed in the HPLC/MS/MS chromatogram.
The data were fitted using a linear regression approach (with R^2>0.9) resulting in pseudo-first order reaction kinetics which reflect the difference in photodegradation between samples. The constant k (cm^2/mJ), the degradation rate fluence-based constant, was calculated as the negative slope obtained when the degradation was plotted logarithmically as described hereinabove.
The UV dose required for 90% degradation of the tested contaminants was calculated using the obtained value for k, by inserting the appropriate numbers into the above equation: […]
Synthetic wastewater was prepared as described in Seo et al. and diluted with deionized water to obtain a 70% transmittance at 254 nm, which is typical for wastewater effluents treated by UV irradiation.

[4] = cited from earlier work; remark: listed apart in the source
[5] = 5 mg/L hydrogen peroxide, UV fluence of 50 mJ/cm^2; cited from earlier work
[6] = UV fluence of 1000 mJ/cm^2, pH 7.5, 254 nm; cited from earlier work
[7] = cited from earlier work; remark: listed apart in the source
[8] = least favorable tested pH vs optimal pH, deionized water

Compound: CC1(C)S[C@@H]2[C@H](NC(=O)[C@H](N)c3ccccc3)C(=O)N2[C@H]1C(=O)O [AMP, ampicillin]
pH dependence of photolytic degradation ([1]; deionized water, in words): more rapid at a pH of 8 than at a pH of 7 or 6
Reduction in UV dose [1, 8]: 33.4%
UV dose for 90% degradation ([1]; pH 6, deionized water, 1 mg/l): 2875 mJ/cm^2
UV dose for 90% degradation ([1]; pH 7, deionized water, 1 mg/l): 2875 mJ/cm^2
UV dose for 90% degradation ([1]; pH 8, deionized water, 1 mg/l): 1916 mJ/cm2

Compound: CC(COc1ccc(Oc2ccccc2)cc1)Oc1ccccn1 (stereo not shown) [PRX, pyriproxyfen]
pH dependence of photolytic degradation ([1]; 1 mg/l): more rapid at a pH of 5 than at a pH of 3
UV dose for 90% removal ([1]; pH 3, deionized water): 2555.6 mJ/cm^2
UV dose for 90% removal ([1]; pH 4, deionized water): 1352.9 mJ/cm^2
UV dose for 90% removal ([1]; pH 5, deionized water): 1277.8 mJ/cm^2
Reduction in UV dose ([1]; tested pH 3-5, deionized water): 50%

Compound: CN(C)[C@@H]1C(O)=C(C(N)=O)C(=O)[C@@]2(O)C(O)=C3C(=O)c4c(O)cccc4[C@@](C)(O)[C@H]3C[C@@H]12 [TC, Tetracycline]
pH dependence of rate constant (k) for photolytic degradation ([1]; deionized water): higher at a relatively high pH (pH 7 or 8)
pH dependence of photolytic degradation ([1]; deionized water, in words): more rapid at a pH of 7 than at a pH of 5
UV dose for 90% degradation ([1]; pH 5, deionized water, 1 mg/l): 8000 mJ/cm^2
UV dose for 90% degradation ([1]; pH 6, deionized water, 1 mg/l): 2300 mJ/cm^2
UV dose for 90% degradation ([1]; pH 7, deionized water, 1 mg/l): 1200 mJ/cm^2

Compound: Oc1nc(Cl)c(Cl)cc1Cl [TCP, 3,5,6-trichloro-2-pyridinol]
Degradation of TCP via direct photolytic process ([4]; UV fluence of 50 mJ/cm^2): approximately 40%
Photodegradation rate, constant maximum value ([4]; pH 5): 6.40×10^−3 cm^2 mJ^−1
Degradation of TCP via indirect photolytic process [5]: 50%

Compound: CCc1cccc(C)c1N(C(=O)CCl)C(C)COC (stereo not shown) [metolachlor]
Fraction degraded [6]: Approximately half

Compound: Cc1ncc([N+](=O)[O-])n1CCO [metronidazole]
Dependency of direct UV photolysis on solution pH ([7]; pH 3-9.5): no significant dependency
Removal efficiency of direct photolysis ([7]; pH 6): low removal efficiency
Relevant pKa [2]: 2.4

Now from value to compound, other results behind:

Reduction in UV dose [1, 8]: 36.4%
UV dose for 90% degradation ([1]; pH 6, deionized water, 1 mg/l): 3285 mJ/cm^2
UV dose for 90% degradation ([1]; pH 7, deionized water, 1 mg/l): 2090 mJ/cm^2
UV dose for 90% degradation ([1]; pH 8, deionized water, 1 mg/l): 2090 mJ/cm2
Compound: CC1(C)S[C@@H]2[C@H](NC(=O)[C@H](N)c3ccc(O)cc3)C(=O)N2[C@H]1C(=O)O [AMX, Amoxicillin]
pH dependence of rate constant (k) for photolytic degradation ([1]; deionized water): higher at a relatively high pH (pH 7 or 8)
pH dependence of photolytic degradation ([1]; deionized water, in words): more rapid at a pH of 7 or 8 than at a pH of 6
Relevant pKa [2]: 6.9

pH dependence of rate constant (k) for photolytic degradation ([1]; deionized water): higher at a pH of 7 than at a pH of 5
Reduction in UV dose [1, 8]: 80.7%
UV dose for 90% degradation ([1]; pH 5, deionized water, 1 mg/l): 2091 mJ/cm^2
UV dose for 90% degradation ([1]; pH 6, deionized water, 1 mg/l): 742 mJ/cm^2
UV dose for 90% degradation ([1]; pH 7, deionized water, 1 mg/l): 403 mJ/cm^2
Degradation in mixture (30 min, pH 5): 26%
Degradation in mixture (60 min): 96%
Degradation in mixture without change of pH, by extrapolation (60 min, pH 5): 53%
Compound: O=C(O)c1cn(C2CC2)c2cc(N3CCNCC3)c(F)cc2c1=O [CPR, Ciprofloxacin]
pH dependence of photolytic degradation ([1]; deionized water, in words): more rapid at a pH of 7 than at a pH of 5

Reduction in UV dose [1, 8]: 66.6%
UV dose for 90% degradation ([1]; pH 6, deionized water, 1 mg/l): 23000 mJ/cm^2
UV dose for 90% degradation ([1]; pH 7, deionized water, 1 mg/l): 11500 mJ/cm^2
UV dose for 90% degradation ([1]; pH 8, deionized water, 1 mg/l): 7667 mJ/cm2
Compound: NC(=O)N1c2ccccc2C=Cc2ccccc21 [CPZ, Carbamazepine]
pH dependence of photolytic degradation ([1]; deionized water, in words): more rapid at a pH of 8 than at a pH of 6
Relevant pKa [2]: 13

Reduction in UV dose [1, 8]: 68.2%
UV dose for 90% degradation ([1]; pH 5, deionized water, 1 mg/l): 3286 mJ/cm^2
UV dose for 90% degradation ([1]; pH 6, deionized water, 1 mg/l): 2300 mJ/cm^2
UV dose for 90% degradation ([1]; pH 7, deionized water, 1 mg/l): 1045 mJ/cm^2
Compound: CCN1CCN(c2cc3c(cc2F)c(=O)c(C(=O)O)cn3C2CC2)CC1 [ENR, enrofloxacin]
pH dependence of photolytic degradation ([1]; deionized water, in words): more rapid at a pH of 7 than at a pH of 5
Relevant pKa [2]: 5.94

Reduction in UV dose [1, 8]: 84.7%
UV dose for 90% degradation ([1]; pH 5, deionized water, 1 mg/l): 4600 mJ/cm^2
UV dose for 90% degradation ([1]; pH 6, deionized water, 1 mg/l): 2091 mJ/cm^2
UV dose for 90% degradation ([1]; pH 7, deionized water, 1 mg/l): 697 mJ/cm^2
Compound: CCn1cc(C(=O)O)c(=O)c2cc(F)c(N3CCNCC3)cc21 [NOR, norfloxacin]
pH dependence of rate constant (k) for photolytic degradation ([1]; deionized water): higher at a relatively high pH (pH 7 or 8)
pH dependence of photolytic degradation ([1]; deionized water, in words): more rapid at a pH of 7 than at a pH of 5
Relevant pKa [2]: 8.4

pH dependence of rate constant (k) for photolytic degradation ([1]; deionized water): higher at a pH of 7 than at a pH of 5
UV dose for 90% degradation ([1]; pH 5, deionized water, 1 mg/l): 5750 mJ/cm^2
UV dose for 90% degradation ([1]; pH 6, deionized water, 1 mg/l): 2556 mJ/cm^2
UV dose for 90% degradation ([1]; pH 7, deionized water, 1 mg/l): 1643 mJ/cm^2
Degradation in mixture (30 min, pH 5): 54%
Degradation in mixture (60 min): 91%
Degradation in mixture without change of pH, by extrapolation (60 min, pH 5): 81%
Compound: CN(C)[C@@H]1C(O)=C(C(N)=O)C(=O)[C@@]2(O)C(O)=C3C(=O)c4c(O)cccc4[C@@](C)(O)[C@H]3[C@H](O)[C@@H]12 [OTC, oxytetracycline]
pH dependence of photolytic degradation ([1]; deionized water, in words): more rapid at a pH of 7 than at a pH of 5

Optimal pH for photodegradation [1]: 5
pH dependence of rate constant (k) for photolytic degradation ([1]; deionized water): higher at a relatively low pH (pH 5)
Reduction in UV dose [1, 8]: 58.3%
UV dose for 90% degradation ([1]; pH 5, deionized water, 1 mg/l): 2400 mJ/cm^2
UV dose for 90% degradation ([1]; pH 6, deionized water, 1 mg/l): 3300 mJ/cm^2
UV dose for 90% degradation ([1]; pH 7, deionized water, 1 mg/l): 5750 mJ/cm^2
Compound: COc1cc(NS(=O)(=O)c2ccc(N)cc2)nc(OC)n1 [SMT, sulfadimethoxine]
pH dependence of photolytic degradation ([1]; deionized water, in words): more rapid at a pH of 5 than at a pH of 7
Relevant pKa [2]: 6.08

Optimal pH for photodegradation [1]: 5
pH dependence of rate constant (k) for photolytic degradation ([1]; deionized water): higher at a pH of 5 than at a pH of 7
Reduction in UV dose [1, 8]: 73.4%
Irradiation time for 90% degradation ([1]; pH 5, deionized water): approximately 4 minutes
UV dose for 90% degradation ([1]; pH 6, deionized water, 1 mg/l): 590 mJ/cm^2
Irradiation time for 90% degradation ([1]; pH 7, deionized water): approximately 12 minutes
UV dose for 90% degradation ([3]; pH 7, synthetic effluent water): 1643 mJ/cm^2
Reduction in UV dose ([3]; pH 7 vs pH 5, synthetic effluent water): 80.8%
Degradation in mixture (30 min, pH 5): 98.4%
Compound: Cc1cc(NS(=O)(=O)c2ccc(N)cc2)no1 [SMX, sulfamethoxazole]
pH dependence of photolytic degradation ([1]; deionized water, in words): more rapid at a pH of 5 than at a pH of 7
pH dependence of photolytic degradation ([3]; synthetic effluent water, in words): more rapid at a pH of 5 than at a pH of 7

Enhancement of photolysis rate ([1]; changing the pH value from 6 to 8, deionized water): more than 12 fold
Reduction in UV dose [1, 8]: 95% and 95.4%
UV dose for 90% degradation ([1]; pH 6, deionized water, 1 mg/l): 23000 mJ/cm^2
UV dose for 90% degradation ([1]; pH 7, deionized water, 1 mg/l): 3833 mJ/cm^2
UV dose for 90% degradation ([1]; pH 8, deionized water, 1 mg/l): 1770 mJ/cm2
Compound: COc1cc(Cc2cnc(N)nc2N)cc(OC)c1OC [TMP, Trimethoprim]
pH dependence of rate constant (k) for photolytic degradation ([1]; deionized water): higher at a relatively high pH (pH 7 or 8)
pH dependence of photolytic degradation ([1]; deionized water, in words): more rapid at a pH of 8 than at a pH of 6
